This note sets out measurements from patent US11034700B2, “Substituted pyrrolidine compound and use thereof” (Takeda Pharmaceutical Company Limited, priority 2017, dated 2021).

This experiment has as its target T1, human OX2 receptor (Homo sapiens, UniProt O43614).
T1 construct: expressed in transfected cells
T1 sequence (O43614 1-444): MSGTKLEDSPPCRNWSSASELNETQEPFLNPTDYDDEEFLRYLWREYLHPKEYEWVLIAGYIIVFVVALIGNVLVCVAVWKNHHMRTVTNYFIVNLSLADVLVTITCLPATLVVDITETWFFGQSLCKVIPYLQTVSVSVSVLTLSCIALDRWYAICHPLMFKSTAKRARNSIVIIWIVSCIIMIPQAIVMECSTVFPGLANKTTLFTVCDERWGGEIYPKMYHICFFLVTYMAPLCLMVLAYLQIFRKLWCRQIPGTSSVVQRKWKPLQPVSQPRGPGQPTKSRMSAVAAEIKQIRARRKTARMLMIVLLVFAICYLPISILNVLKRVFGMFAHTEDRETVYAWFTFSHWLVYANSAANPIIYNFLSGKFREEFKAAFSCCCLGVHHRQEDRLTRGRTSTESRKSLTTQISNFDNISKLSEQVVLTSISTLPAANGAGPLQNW
Kind of experiment: Measurement of orexin type 2 receptor agonist activity (Fluo-4 calcium fluorescence, FDSS). It counts as cell-based. To be noted: compound at 3 μM; CHO cells forcibly expressing human OX2 receptor; DMSO = 0%, orexin A (human) 10 nM = 100%. From the text:
Experimental Example 1: Obtainment of Cell Stably Expressing Human Orexin Type 2 Receptor (hOX2R)
To obtain a cell clone stably expressing human orexin type 2 receptor, human orexin type 2 receptor cDNA was inserted into pcDNA3.1(+) plasmid vector (Invitrogen), and a plasmid DNA for expression of human orexin type 2 receptor (pcDNA3.1(+)/hOX2R) was cloned. The plasmid DNA was introduced into CHO-dhfr cell by an electroporation method, and human orexin type 2 receptor expressing clone cells were obtained by limiting dilution method by using G418 drug resistance as a selection marker.
Experimental Example 2: Measurement of Orexin Type 2 Receptor Agonist Activity
CHO cells forcibly expressing human OX2 receptor were seeded in each well of 384 well black transparent bottom plate (BD Falcon) at 7,500 cells/well, and cultured for one day in a 5% CO2 incubator at 37° C. After removal of the medium in the cell plate, assay buffer A containing a calcium indicator (HESS (Life Technologies), 20 mM HEPES (Life Technologies), 0.1% BSA (Wako Pure Chemical Industries, Ltd.), 2.5 μg/mL Fluo-4 AM (DOJINDO Chemical), 0.08% Pluronic F127 (DOJINDO Chemical), 1.25 mM probenecid (DOJINDO Chemical)) was added at 30 μL/well. The plate was stood for 30 min in a 5% CO2 incubator at 37° C., and further stood at room temperature for 30 min. A test compound prepared by diluting with assay buffer B (HESS, 20 mM HEPES, 0.1% BSA) was added at 10 μL/well, and the fluorescence value was measured by FDSSμCELL (Hamamatsu Photonics K.K.) every one sec for 1 min, and thereafter every two sec for 1 min 40 sec. The activity (%) of the test compound was calculated assuming that variation in the fluorescence value when DMSO was added instead of the test compound was 0% […], and variation in the fluorescence value when orexin A (human) (PEPTIDE INSTITUTE, INC.) was added at the final concentration of 10 nM was 100% […]. The activity of each compound at the concentration of 3 μM was shown below.

With `COc1ccccc1S(=O)(=O)Nc1cccc(O[C@@H]2CN(C(=O)c3cc(C)ccc3C)C[C@H]2OC)c1` [Example 63, N-(3-(((3R,4R)-1-(2,5-dimethylbenzoyl)-4-methoxypyrrolidin-3-yl)oxy)phenyl)-2-methoxybenzenesulfonamide], the “OX2R agonist activity (3 μM, %)” value is given as 112%.

As to `COc1ccccc1S(=O)(=O)Nc1cncc(O[C@@H]2CN(C(=O)c3cc(C)ccc3C)C[C@H]2OC)c1` (relative stereo) [Example 106, trans-N-(5-((1-(2,5-dimethylbenzoyl)-4-methoxypyrrolidin-3-yl)oxy)pyridin-3-yl)-2-methoxybenzenesulfonamide], the “OX2R agonist activity (3 μM, %)” value was determined as 104%.

Consider `COc1ccccc1S(=O)(=O)Nc1cccc(O[C@@H]2CN(C(=O)C3(c4ccccc4)CC3)C[C@H]2OC)c1` [Example 76, 2-methoxy-N-(3-(((3R,4R)-4-methoxy-1-((1-phenylcyclopropyl)carbonyl)pyrrolidin-3-yl)oxy)phenyl)benzenesulfonamide], for which the “OX2R agonist activity (3 μM, %)” value came out at 79%.

On to `COc1ccc(-c2cccc(C(=O)N(C)C)c2)cc1S(=O)(=O)Nc1cccc(O[C@H]2CCN(C(=O)c3ccccc3C)C2)c1` [Example 7, 4′-methoxy-N,N-dimethyl-3′-((3-(((3S)-1-(2-methylbenzoyl)pyrrolidin-3-yl)oxy)phenyl)sulfamoyl)biphenyl-3-carboxamide], for which the “OX2R agonist activity (3 μM, %)” value stood at 92%.

Take `Cc1cccc(C)c1C(=O)N1CC[C@H](Oc2cccc(NS(=O)(=O)c3cccc(-c4cccc(C(=O)N(C)C)c4)c3)c2)C1` [Example 34, 3′-((3-(((3S)-1-(2,6-dimethylbenzoyl)pyrrolidin-3-yl)oxy)phenyl)sulfamoyl)-N,N-dimethylbiphenyl-3-carboxamide]: the “OX2R agonist activity (3 μM, %)” value was 94%.

As to `COc1ccc(-c2cccc(C(=O)N(C)C)c2)cc1S(=O)(=O)Nc1cccc(O[C@H]2CCN(C(=O)c3cc(C)ccc3C)C2)c1` [Example 32, 3′-((3-(((3S)-1-(2,5-dimethylbenzoyl)pyrrolidin-3-yl)oxy)phenyl)sulfamoyl)-4′-methoxy-N,N-dimethylbiphenyl-3-carboxamide], the “OX2R agonist activity (3 μM, %)” value worked out at 92%.

In the case of `COc1ccc(-c2cccc(C(=O)N(C)C)c2)cc1S(=O)(=O)Nc1cccc(NC2CCN(C(=O)c3cccc(C)c3)C2)c1` (stereo not drawn) [Example 1, 4′-methoxy-N,N-dimethyl-3′-((3-((1-(3-methylbenzoyl)pyrrolidin-3-yl)amino)phenyl)sulfamoyl)biphenyl-3-carboxamide], the “OX2R agonist activity (3 μM, %)” value amounted to 103%.

Turning to `COc1ccc(-c2cccc(C(=O)N(C)C)c2)cc1S(=O)(=O)Nc1cccc(O[C@H]2CCN(C(=O)c3ccccc3N(C)C)C2)c1` [Example 9, 3′-((3-(((3S)-1-(2-(dimethylamino)benzoyl)pyrrolidin-3-yl)oxy)phenyl)sulfamoyl)-4′-methoxy-N,N-dimethylbiphenyl-3-carboxamide], the “OX2R agonist activity (3 μM, %)” value stood at 91%.

On to `COc1ccc(-c2cccc(C(=O)N(C)C)c2)cc1S(=O)(=O)Nc1cccc(O[C@H]2CCN(C(=O)c3cccnc3C(F)(F)F)C2)c1` [Example 23, 4′-methoxy-N,N-dimethyl-3′-((3-(((3S)-1-((2-(trifluoromethyl)pyridin-3-yl)carbonyl)pyrrolidin-3-yl)oxy)phenyl)sulfamoyl)biphenyl-3-carboxamide], for which the “OX2R agonist activity (3 μM, %)” value came out at 88%.

Take `COc1ccc(-c2cccc(C(=O)N(C)C)c2)cc1S(=O)(=O)Nc1cc(OC2CCN(C(=O)c3cccc(C)c3)C2)ccn1` (stereo not drawn) [Example 49, 4′-methoxy-N,N-dimethyl-3′-((4-((1-(3-methylbenzoyl)pyrrolidin-3-yl)oxy)pyridin-2-yl)sulfamoyl)biphenyl-3-carboxamide]: the “OX2R agonist activity (3 μM, %)” value is 64%.

On to `COc1ccc(-c2cccc(C(=O)N(C)C)c2)cc1S(=O)(=O)Nc1cccc(O[C@H]2CCN(C(=O)c3cnn(C)c3C(F)(F)F)C2)c1` [Example 29, 4′-methoxy-N,N-dimethyl-3′-((3-(((3S)-1-((1-methyl-5-(trifluoromethyl)-1H-pyrazol-4-yl)carbonyl)pyrrolidin-3-yl)oxy)phenyl)sulfamoyl)biphenyl-3-carboxamide], for which the “OX2R agonist activity (3 μM, %)” value was found to be 98%.

`COc1ccc(N2CCCC3(CCCCO3)C2)cc1S(=O)(=O)Nc1cccc(O[C@H]2CCN(C(=O)c3c(C)cccc3C)C2)c1` (stereo partly drawn) [Example 41, N-(3-(((3S)-1-(2,6-dimethylbenzoyl)pyrrolidin-3-yl)oxy)phenyl)-2-methoxy-5-(1-oxa-8-azaspiro[5.5]undec-8-yl)benzenesulfonamide]: the “OX2R agonist activity (3 μM, %)” value is given as 97%.

`COc1ccc(-c2cccc(C(=O)N(C)C)c2)cc1S(=O)(=O)Nc1cccc(O[C@@H]2CN(C(=O)c3cc(C)ccc3C)C[C@H]2OC)c1` (relative stereo) [Example 60, trans-3′-((3-((1-(2,5-dimethylbenzoyl)-4-methoxypyrrolidin-3-yl)oxy)phenyl)sulfamoyl)-4′-methoxy-N,N-dimethylbiphenyl-3-carboxamide]: the “OX2R agonist activity (3 μM, %)” value came out at 105%.

In the case of `CCCS(=O)(=O)Nc1cccc(O[C@H]2CCN(C(=O)c3c(C)cccc3C)C2)c1` [Example 36, N-(3-(((3S)-1-(2,6-dimethylbenzoyl)pyrrolidin-3-yl)oxy)phenyl)propane-1-sulfonamide], the “OX2R agonist activity (3 μM, %)” value is given as 23%.

For `COc1ccccc1S(=O)(=O)Nc1cccc(O[C@@H]2CN(C(=O)c3c(C)cccc3C)C[C@H]2OC)c1` [Example 74, N-(3-(((3R,4R)-1-(2,6-dimethylbenzoyl)-4-methoxypyrrolidin-3-yl)oxy)phenyl)-2-methoxybenzenesulfonamide], the “OX2R agonist activity (3 μM, %)” value is 104%.

For the compound `COc1ccc(-c2cccc(C(=O)N(C)C)c2)cc1S(=O)(=O)Nc1cccc(CC2CCN(C(=O)c3cc(C)ccc3C)C2)n1` (stereo not drawn) [Example 45, 3′-((6-((1-(2,5-dimethylbenzoyl)pyrrolidin-3-yl)methyl)pyridin-2-yl)sulfamoyl)-4′-methoxy-N,N-dimethylbiphenyl-3-carboxamide], the “OX2R agonist activity (3 μM, %)” value was found to be 92%.

Take `COc1ccc(N2CCCCC2=O)cc1S(=O)(=O)Nc1cccc(O[C@H]2CCN(C(=O)c3c(C)cccc3C)C2)c1` [Example 30, N-(3-(((3S)-1-(2,6-dimethylbenzoyl)pyrrolidin-3-yl)oxy)phenyl)-2-methoxy-5-(2-oxopiperidin-1-yl)benzenesulfonamide]: the “OX2R agonist activity (3 μM, %)” value is given as 89%.

As for `COc1ccc(-c2cccc(C(=O)N(C)C)c2)cc1S(=O)(=O)Nc1cccc(O[C@H]2CCN(C(=O)c3cnn(C)c3-c3ccccc3)C2)c1` [Example 13, 4′-methoxy-N,N-dimethyl-3′-((3-(((3S)-1-((1-methyl-5-phenyl-1H-pyrazol-4-yl)carbonyl)pyrrolidin-3-yl)oxy)phenyl)sulfamoyl)biphenyl-3-carboxamide], the “OX2R agonist activity (3 μM, %)” value is reported as 97%.

On to `CCCS(=O)(=O)Nc1cccc(O[C@@H]2CN(C(=O)c3cc(C)ccc3C)C[C@H]2OC)c1` [Example 79, N-(3-(((3R,4R)-1-(2,5-dimethylbenzoyl)-4-methoxypyrrolidin-3-yl)oxy)phenyl)propane-1-sulfonamide], for which the “OX2R agonist activity (3 μM, %)” value is 76%.

As to `COc1ccc(-c2cccc(C(=O)N(C)C)c2)cc1S(=O)(=O)Nc1cccc(O[C@H]2CCN(C(=O)C3CCCCO3)C2)c1` (stereo partly drawn) [Example 14, 4′-methoxy-N,N-dimethyl-3′-((3-(((3S)-1-(tetrahydro-2H-pyran-2-ylcarbonyl)pyrrolidin-3-yl)oxy)phenyl)sulfamoyl)biphenyl-3-carboxamide], the “OX2R agonist activity (3 μM, %)” value turned out to be 95%.

On to `CO[C@@H]1CN(C(=O)c2cc(C)ccc2C)C[C@H]1Oc1cccc(NS(=O)(=O)c2sccc2Cl)c1` [Example 84, 3-chloro-N-(3-(((3R,4R)-1-(2,5-dimethylbenzoyl)-4-methoxypyrrolidin-3-yl)oxy)phenyl)thiophene-2-sulfonamide], for which the “OX2R agonist activity (3 μM, %)” value came out at 96%.
